# Measurements: PMC9971260 (Scientific Reports, 2023)
# Structures can show the parent of a compound that is named as a salt.
# How the values were obtained:
# [1] = set-up: method as in earlier work; conditions: cited from earlier work
# [2] = mouse, in vivo, 50 mg/kg; cited from earlier work
# [3] = system: carrageenan-induced hyperalgesia; experiment: post-treatment of carrageenan-induced hyperalgesia; type: in vivo, rat; conditions: rats
# Method: The PWL of untreated rats from the pre-treatment carrageenan study were used as a negative control in this experiment, as well. […] One hind paw was randomly selected to be the observed paw for the entirety of the experiment. Prior to administration of a treatment, the baseline (-23 h) PWL was assessed as described above.
# Twenty-three hours after administration of carrageenan, PWL was assessed (23 h) to confirm induction of hyperalgesia, and to establish the PWL prior to treatment. […] PWL was assessed relative to administration of treatment ([…], 48, 72, and 96 h), and two PWL measurements were taken at each time point for each rat.
# [4] = system: carrageenan-induced paw edema and hyperalgesia; experiment: pre-treatment of carrageenan-induced paw edema and hyperalgesia; conditions: rats
# COX-1 = conditions: read-out: IC50 against COX-1; cited from earlier work
# postoperative pain [5] = experiment: post-treatment of postoperative pain (incisional model); type: in vivo, mouse; conditions: mice, 5 mg/kg SC daily Days 1 to 7
# Method: Thirty-one (31) mice were randomly assigned to one of four treatment groups: vehicle (5 μL/g, SC) (n = 8), UK4b (20 mg/kg, SC) (n = 7), UK4b (10 mg/kg, SC) (n = 8), and morphine (5 mg/kg, SC) (n = 8). This experiment took place over 14 days. […] Similarly, four days before surgery, the animals began acclimation for one hour per day to the mechanical sensitization (allodynia) apparatus before assessment. Mechanical sensitization was measured with a series of 8 von Frey fiber filaments (0.008 g (1.65); 0.02 g (2.36); 0.07 g (2.83); 0.16 g (3.22); 0.4 g (3.61); 1.0 g (4.08); 2.0 g (4.31); 6.0 g (4.74); Stoelting, Wood Dale, IL) using a modified up-down method. For the algorithm, each filament is applied to the plantar surface of the hind paw for five times. If the mouse retracts that hind paw at least three times, that is considered a positive response to the filament, and the next applied filament would be weaker than the last. If the animal retracts the hind paw fewer than three times, this is a negative response, and the next stronger filament is applied. […] Two hours after surgery was complete, PWL was assessed, followed by measurement of mechanical sensitization threshold. […] On Day 9, 48 h after the final treatment was administered on Day 7, PWL and mechanical sensitization threshold were assessed to follow-up with the animals after treatment ceased. […]
# postoperative pain [6] = experiment: pre- and post-treatment of postoperative pain (incisional model); type: in vivo, mouse; conditions: mice, pretreatment 5 mg/kg SC 2 h before surgery
# Method: Twenty-eight (28) mice were randomly assigned to one of four treatment groups: vehicle (5 μL/g, SC) (n = 8), UK4b (20 mg/kg, SC) (n = 7), UK4b (10 mg/kg, SC) (n = 7), and morphine (5 mg/kg, SC) (n = 6). This experiment took place over 14 days. Animals underwent the same acclimation and baseline measurement for PWL and mechanical sensitization threshold as described in the section above on Days -4 to -1. On Day 0, surgery was performed as described above, but each animal received their first treatment two hours prior to surgery (-2 h). Two hours after surgery was complete, PWL was assessed, followed by measurement of mechanical sensitization threshold. Treatment continued once daily from Days 1 through 7. Two hours after drug treatment, PWL and mechanical sensitization threshold are measured. On Day 9, 48 h after the final treatment was administered on Day 7, PWL and mechanical threshold are assessed to follow-up with the animals after treatment ceases. The PWL (seconds) was graphed relative to time (days since surgery). Mechanical sensitization thresholds were graphed as 50% threshold (grams) versus time (days since surgery).
# COX-2 = conditions: cited from earlier work
compound,measurement,setting,value
"CCCCC[C@H](O)/C=C/[C@H]1[C@H](O)CC(=O)[C@@H]1C/C=C\CCCC(=O)O [PGE2, prostaglandin E2]",plasma half-life,[1],2.5 to 5 min
Cc1ccc(-c2cc(C(F)(F)F)nn2-c2ccc(S(N)(=O)=O)cc2)cc1 [celecoxib],stomach tissue damage,[2],caused stomach tissue damage in all mice
NCC1(CC(=O)O)CCCCC1 [gabapentin],"carrageenan-induced hyperalgesia (PWL), post-treatment",[3]; 100 mg/kg IP 23 h after carrageenan,significantly relieved the pain
same,carrageenan-induced hyperalgesia (PWL),[4]; pretreatment 100 mg/kg IP 1 h or 4 h before carrageenan,"similarly relieved the hyperalgesia, but 100 mg/kg gabapentin was not as effective as 10 mg/kg UK4b"
CN1CC[C@]23c4c5ccc(O)c4O[C@H]2[C@@H](O)C=C[C@H]3[C@H]1C5 [morphine],postoperative allodynia (50% mechanical threshold),postoperative pain [5],significantly attenuated
same,postoperative hyperalgesia (PWL),postoperative pain [5],significantly attenuated
same,postoperative allodynia (50% mechanical threshold) on Day 0,postoperative pain [6],did not significantly attenuate the postoperative allodynia
same,postoperative hyperalgesia (PWL) on Day 0,postoperative pain [6],significantly attenuating the postoperative hyperalgesia
"COc1ccc2c3c1O[C@H]1C(=O)CC[C@@]4(O)[C@@H](C2)N(C)CC[C@]314 [oxycodone, Oxycodone hydrochloride]","carrageenan-induced hyperalgesia (PWL), post-treatment",[3]; 5 mg/kg IP 23 h after carrageenan,significantly relieved the pain
same,carrageenan-induced hyperalgesia (PWL),"[4]; pretreatment 5 mg/kg IP, at and after 23 h",still significant pain
same,carrageenan-induced hyperalgesia (PWL),"[4]; pretreatment 5 mg/kg IP, within six hours after carrageenan injection",effectively relieved the pain
CS(=O)(=O)c1ccc(C2=C(c3ccccc3)C(=O)OC2)cc1 [rofecoxib],IC50 against COX-2 (in words),COX-2,low-nanomolar
